Measurements reported in ChEMBL document CHEMBL1145817, “Conformationally constrained analogues of diacylglycerol. 19. Synthesis and protein kinase C binding affinity of diacylglycerol lactones bearing an N-hydroxylamide side chain” (J Med Chem, 2003).

Biological target: Protein kinase C alpha type (Homo sapiens, UniProt P17252)
Assay: Binding affinity for Protein kinase C alpha C1a or C1b domain

Row | Structure (SMILES) | Ki [µM]
1 | CC(C)CC(C/C=C1\CC(CO)(CN(O)C(=O)C(C)(C)C)OC1=O)CC(C)C (configuration not stated) | 6.79
2 | CC(C)CC(C/C=C1/CC(CO)(CN(O)C(=O)C(C)(C)C)OC1=O)CC(C)C (configuration not stated) | 6.98
